In PubChem BioAssay AID1259407 (Chemical Carcinogenesis Research Information System (CCRIS), 2018):
The source made the active and inactive calls. How the calls were made is not given here.

System: CCRIS mutagenicity, Ames/micronucleus/aberration tests
Assay: CCRIS mutagenicity studies
[1] = Test System: AMES SALMONELLA TYPHIMURIUM, Strain/Indicator: TA98, Metabolic Activation: NONE, Method: PREINCUBATION
[2] = Test System: AMES SALMONELLA TYPHIMURIUM, Strain/Indicator: TA98, Metabolic Activation: RAT, LIVER, S-9, PCB, Method: PREINCUBATION
[3] = Test System: AMES SALMONELLA TYPHIMURIUM, Strain/Indicator: TA100, Metabolic Activation: NONE, Method: PREINCUBATION
[4] = Test System: AMES SALMONELLA TYPHIMURIUM, Strain/Indicator: TA100, Metabolic Activation: RAT, LIVER, S-9, PCB, Method: PREINCUBATION
[5] = Test System: AMES SALMONELLA TYPHIMURIUM, Strain/Indicator: TA98, Metabolic Activation: NONE, Method: STANDARD PLATE
[6] = Test System: AMES SALMONELLA TYPHIMURIUM, Strain/Indicator: TA98, Metabolic Activation: RAT, LIVER, S-9, AROCLOR 1254, Method: STANDARD PLATE
[7] = Test System: AMES SALMONELLA TYPHIMURIUM, Strain/Indicator: TA100, Metabolic Activation: NONE, Method: STANDARD PLATE
[8] = Test System: AMES SALMONELLA TYPHIMURIUM, Strain/Indicator: TA100, Metabolic Activation: RAT, LIVER, S-9, AROCLOR 1254, Method: STANDARD PLATE
[9] = Test System: AMES SALMONELLA TYPHIMURIUM, Strain/Indicator: TA1538, Metabolic Activation: RAT, LIVER, S-9, AROCLOR 1254, Method: STANDARD PLATE

**Q.** With FC(F)(Br)C(F)(F)I as the compound, how does the mutagenic call (Test System: Ames Salmonella typhimurium, Strain/Indicator: TA98, Metabolic Activation: None, Method: Preincubation) read?
**A.** inactive; negative

**Q.** And the mutagenic call (Test System: Ames Salmonella typhimurium, Strain/Indicator: TA98, Metabolic Activation: Rat, Liver, S9, Sodium phenobarbital and 5,6-benzoflavone (10%), Method: Preincubation)?
**A.** inactive; negative

**Q.** What about the mutagenic call (Test System: Ames Salmonella typhimurium, Strain/Indicator: TA100, Metabolic Activation: None, Method: Preincubation) of the same compound?
**A.** inactive; negative

**Q.** And the mutagenic call (Test System: Ames Salmonella typhimurium, Strain/Indicator: TA100, Metabolic Activation: Rat, Liver, S9, Sodium phenobarbital and 5,6-benzoflavone (10%), Method: Preincubation)?
**A.** inactive; negative

**Q.** And the mutagenic call (Test System: Ames Salmonella typhimurium, Strain/Indicator: TA1535, Metabolic Activation: None, Method: Preincubation)?
**A.** active; positive

**Q.** What about the mutagenic call (Test System: Ames Salmonella typhimurium, Strain/Indicator: TA1535, Metabolic Activation: Rat, Liver, S9, Sodium phenobarbital and 5,6-benzoflavone (10%), Method: Preincubation) of the same compound?
**A.** active; positive

**Q.** What about the mutagenic call (Test System: Ames Salmonella typhimurium, Strain/Indicator: TA1537, Metabolic Activation: None, Method: Preincubation) of the same compound?
**A.** inactive; negative

**Q.** What about the mutagenic call (Test System: Ames Salmonella typhimurium, Strain/Indicator: TA1537, Metabolic Activation: Rat, Liver, S9, Sodium phenobarbital and 5,6-benzoflavone (10%), Method: Preincubation) of the same compound?
**A.** inactive; negative

**Q.** What about the mutagenic call (Test System: E. coli, Strain/Indicator: WP2uvrA/pKM101, Metabolic Activation: None, Method: Preincubation) of the same compound?
**A.** active; positive

**Q.** And the mutagenic call (Test System: E. coli, Strain/Indicator: WP2uvrA/pKM101, Metabolic Activation: Rat, Liver, S9, Sodium phenobarbital and 5,6-benzoflavone (10%), Method: Preincubation)?
**A.** active; positive

**Q.** What does the source list for CNc1ccc2nc(C)c(C)nc2c1C?
**A.** mutagenic call [1]: inactive; negative; mutagenic call [2]: active; positive; mutagenic call [3]: inactive; negative; mutagenic call [4]: active; positive

**Q.** Which mutagenic call (End Point: IN VIVO CHROMOSOMAL ABERRATIONS, Test System: BONE MARROW CELLS, Species: RAT, Strain/Sex: WISTAR/MALE, FEMALE, Route: ORAL (GAVAGE)) does the source give for CCCCCCCCCCCCCCCC(=O)OC/C=C(C)/C=C/C=C(C)/C=C/C1=C(C)CCCC1(C)C here?
**A.** active; positive (structural changes; abnormal metaphase)

**Q.** What about the mutagenic call (End Point: IN VIVO CHROMOSOMAL ABERRATIONS, Test System: BONE MARROW, Species: RAT, Strain/Sex: WISTAR/MALE, FEMALE, Route: GAVAGE) of the same compound?
**A.** active; positive (structural changes)

**Q.** What about the mutagenic call (End Point: IN VIVO MICRONUCLEUS, Test System: BONE MARROW POLYCHROMATIC ERYTHROCYTES, Species: MOUSE, Strain/Sex: DDY/MALE, Route: IP) of the same compound?
**A.** inactive; negative

**Q.** What about the mutagenic call [5] of the same compound?
**A.** inactive; negative

**Q.** What about the mutagenic call [6] of the same compound?
**A.** inactive; negative

**Q.** What about the mutagenic call [7] of the same compound?
**A.** inactive; negative

**Q.** And the mutagenic call [8]?
**A.** inactive; negative

**Q.** And the mutagenic call (Test System: AMES SALMONELLA TYPHIMURIUM, Strain/Indicator: TA1535, Metabolic Activation: NONE, Method: STANDARD PLATE)?
**A.** inactive; negative

**Q.** What about the mutagenic call (Test System: AMES SALMONELLA TYPHIMURIUM, Strain/Indicator: TA1535, Metabolic Activation: RAT, LIVER, S-9, AROCLOR 1254, Method: STANDARD PLATE) of the same compound?
**A.** inactive; negative

**Q.** What about the mutagenic call (Test System: AMES SALMONELLA TYPHIMURIUM, Strain/Indicator: TA1537, Metabolic Activation: NONE, Method: STANDARD PLATE) of the same compound?
**A.** inactive; negative

**Q.** And the mutagenic call (Test System: AMES SALMONELLA TYPHIMURIUM, Strain/Indicator: TA1537, Metabolic Activation: RAT, LIVER, S-9, AROCLOR 1254, Method: STANDARD PLATE)?
**A.** inactive; negative

**Q.** What about the mutagenic call (Test System: AMES SALMONELLA TYPHIMURIUM, Strain/Indicator: TA1538, Metabolic Activation: NONE, Method: STANDARD PLATE) of the same compound?
**A.** inactive; negative

**Q.** And the mutagenic call [9]?
**A.** inactive; negative

**Q.** And the mutagenic call (Test System: E. COLI, Strain/Indicator: WP2, Metabolic Activation: NONE, Method: STANDARD PLATE)?
**A.** inactive; negative

**Q.** And the mutagenic call (Test System: E. COLI, Strain/Indicator: WP2, Metabolic Activation: RAT, LIVER, S-9, AROCLOR 1254, Method: STANDARD PLATE)?
**A.** inactive; negative

**Q.** COC(=O)/C=C/c1ccc([N+](=O)[O-])o1 was tested. Which mutagenic call [1] did it give?
**A.** active; positive

**Q.** What does the source list for CC(=O)Nc1ccc2c(c1)Cc1cccc(O)c1-2?
**A.** mutagenic call [6]: active; positive; mutagenic call [8]: active; positive; mutagenic call [9]: active; positive

**Q.** With O=[N+]([O-])c1c(O)ccc2ccccc12 as the compound, how does the mutagenic call [1] read?
**A.** active; positive

**Q.** C[C@H]1C=C(C=O)C(C=O)=C[C@]2(O)CC(C)(C)C[C@H]12 was tested. Which mutagenic call [5] did it give?
**A.** active; positive

**Q.** And the mutagenic call [7]?
**A.** active; positive

**Q.** And the mutagenic call (Test System: AMES SALMONELLA TYPHIMURIUM, Strain/Indicator: TA2637, Metabolic Activation: NONE, Method: STANDARD PLATE)?
**A.** inactive; negative

**Q.** How did the mutagenic call (Test System: AMES SALMONELLA TYPHIMURIUM, Strain/Indicator: TA98(1,8-DNP), Metabolic Activation: NONE, Method: PREINCUBATION) turn out when O=[N+]([O-])c1ccc(Nc2ncnc3nc[nH]c23)cc1 was run?
**A.** inactive; negative

**Q.** And the mutagenic call (Test System: AMES SALMONELLA TYPHIMURIUM, Strain/Indicator: TA98(1,8-DNP), Metabolic Activation: RAT, LIVER, S-9, PCB, Method: PREINCUBATION)?
**A.** inactive; negative

**Q.** What about the mutagenic call (Test System: AMES SALMONELLA TYPHIMURIUM, Strain/Indicator: TA98(NR), Metabolic Activation: NONE, Method: PREINCUBATION) of the same compound?
**A.** inactive; negative

**Q.** And the mutagenic call (Test System: AMES SALMONELLA TYPHIMURIUM, Strain/Indicator: TA98(NR), Metabolic Activation: RAT, LIVER, S-9, PCB, Method: PREINCUBATION)?
**A.** inactive; negative

**Q.** And the mutagenic call [1]?
**A.** inactive; negative

**Q.** And the mutagenic call [2]?
**A.** inactive; negative

**Q.** And the mutagenic call (Test System: AMES SALMONELLA TYPHIMURIUM, Strain/Indicator: TA100(1,8-DNP), Metabolic Activation: NONE, Method: PREINCUBATION)?
**A.** inactive; negative

**Q.** What about the mutagenic call (Test System: AMES SALMONELLA TYPHIMURIUM, Strain/Indicator: TA100(1,8-DNP), Metabolic Activation: RAT, LIVER, S-9, PCB, Method: PREINCUBATION) of the same compound?
**A.** inactive; negative

**Q.** And the mutagenic call (Test System: AMES SALMONELLA TYPHIMURIUM, Strain/Indicator: TA100(NR), Metabolic Activation: NONE, Method: PREINCUBATION)?
**A.** inactive; negative

**Q.** And the mutagenic call (Test System: AMES SALMONELLA TYPHIMURIUM, Strain/Indicator: TA100(NR), Metabolic Activation: RAT, LIVER, S-9, PCB, Method: PREINCUBATION)?
**A.** inactive; negative

**Q.** And the mutagenic call [3]?
**A.** inactive; negative

**Q.** And the mutagenic call [4]?
**A.** inactive; negative

**Q.** And the mutagenic call (Test System: AMES SALMONELLA TYPHIMURIUM, Strain/Indicator: YG1020, Metabolic Activation: NONE, Method: PREINCUBATION)?
**A.** inactive; negative

**Q.** What about the mutagenic call (Test System: AMES SALMONELLA TYPHIMURIUM, Strain/Indicator: YG1020, Metabolic Activation: RAT, LIVER, S-9, PCB, Method: PREINCUBATION) of the same compound?
**A.** inactive; negative

**Q.** What about the mutagenic call (Test System: AMES SALMONELLA TYPHIMURIUM, Strain/Indicator: YG1021, Metabolic Activation: NONE, Method: PREINCUBATION) of the same compound?
**A.** inactive; negative

**Q.** And the mutagenic call (Test System: AMES SALMONELLA TYPHIMURIUM, Strain/Indicator: YG1021, Metabolic Activation: RAT, LIVER, S-9, PCB, Method: PREINCUBATION)?
**A.** inactive; negative

**Q.** What about the mutagenic call (Test System: AMES SALMONELLA TYPHIMURIUM, Strain/Indicator: YG1024, Metabolic Activation: NONE, Method: PREINCUBATION) of the same compound?
**A.** inactive; negative

**Q.** And the mutagenic call (Test System: AMES SALMONELLA TYPHIMURIUM, Strain/Indicator: YG1024, Metabolic Activation: RAT, LIVER, S-9, PCB, Method: PREINCUBATION)?
**A.** inactive; negative

**Q.** What about the mutagenic call (Test System: AMES SALMONELLA TYPHIMURIUM, Strain/Indicator: YG1025, Metabolic Activation: NONE, Method: PREINCUBATION) of the same compound?
**A.** inactive; negative

**Q.** What about the mutagenic call (Test System: AMES SALMONELLA TYPHIMURIUM, Strain/Indicator: YG1025, Metabolic Activation: RAT, LIVER, S-9, PCB, Method: PREINCUBATION) of the same compound?
**A.** inactive; negative

**Q.** And the mutagenic call (Test System: AMES SALMONELLA TYPHIMURIUM, Strain/Indicator: YG1026, Metabolic Activation: NONE, Method: PREINCUBATION)?
**A.** inactive; negative

**Q.** What about the mutagenic call (Test System: AMES SALMONELLA TYPHIMURIUM, Strain/Indicator: YG1026, Metabolic Activation: RAT, LIVER, S-9, PCB, Method: PREINCUBATION) of the same compound?
**A.** inactive; negative

**Q.** What about the mutagenic call (Test System: AMES SALMONELLA TYPHIMURIUM, Strain/Indicator: YG1029, Metabolic Activation: NONE, Method: PREINCUBATION) of the same compound?
**A.** inactive; negative

**Q.** What about the mutagenic call (Test System: AMES SALMONELLA TYPHIMURIUM, Strain/Indicator: YG1029, Metabolic Activation: RAT, LIVER, S-9, PCB, Method: PREINCUBATION) of the same compound?
**A.** inactive; negative

**Q.** How did the mutagenic call (End Point: IN VIVO MICRONUCLEUS, Test System: BONE MARROW POLYCHROMATIC ERYTHROCYTES, Species: MOUSE, Strain/Sex: NMRI/FEMALE, Route: INTRAGASTRIC) turn out when C#C[C@]1(O)C=C[C@H]2[C@@H]3CCC4=CC(=O)CC[C@@H]4[C@H]3CC[C@@]21CC was run?
**A.** inactive; negative
